Measured values from patent US20080033046A1, “Treatment of myocardial infarction with 11HSD1 inhibitors” (University of Edinburgh, priority 2004, published 2008).
“Also recorded” adds a separate entry of the source.

Legend:
[1] = tested on: mouse aortic rings; assay: Angiogenesis in mouse aortic rings embedded in Matrigel (new vessel count); format: cell-based; conditions: for effect on the angiostatic effect of corticosterone / direct effect on angiogenesis in aortic rings (drug alone): drug 10^−6 M; for effect on the angiostatic effect of corticosterone: corticosterone 600 nM; for direct effect on angiogenesis in aortic rings (drug alone): no glucocorticoid
Description: Mice were killed humanely and thoracic aortae were removed, washed in serum free MCDB 131 medium (Invitrogen, UK), cleaned of periadventitial tissue and divided into 1-3 mm rings.
To quantify angiogenesis aortic rings were embedded in 200 μl of steroid free Matrigel (Becton Dickinson, UK) and incubated at 37° C. in serum free MCDB 131, with heparin, ascorbic acid, and GA1000 (Cambrex Biosciences, UK) in the presence and absence of: corticosterone (3 nM, 30 nM, 300 nM, 600 nM); 11-dehydrocorticosterone (300 nM, 60 nM); the glucocorticoid receptor antagonist, RU38486 (10^−6M)^59, the mineralocorticoid receptor antagonist, spironolactone (10^−6 M)^60; and/or the […] 11βHSD inhibitor, carbenoxolone (10^−4-10^−6M)^31. All drugs (Sigma-Aldrich, UK) were dissolved in ethanol and diluted in aqueous solution; final ethanol concentration 1-3% v/v. Media were changed every 48 hours. Experiments were performed in triplicate. In initial experiments, new vessels were counted daily using light microscopy (FIG. 1). From these studies day 7 was selected as the appropriate time point to examine the effects of glucocorticoids (FIG. 1c).
To confirm the nature of apparent new vessels, endothelial cells were identified by uptake of fluorescent-labelled acetylated low-density lipoprotein (DiI-Ac-LDL)(Biogenesis, Dorset UK) FIG. 1b).

[2] = tested on: mouse aortic rings; assay: as above; format: cell-based; conditions: wild type rings, drug 10^−6 M, 11-dehydrocorticosterone 600 nM
[3] = tested on: subcutaneous sponge implants in mice; assay: Subcutaneous sponge implant assay (vessel density, Chalkley counts); format: in vivo, mouse; conditions: 20 days; for effect of steroid-impregnated sponge on angiogenesis in vivo: 2 mg steroid in silastic insert
Description: (§1) Mice were anaesthetized with halothane and a sterilised sponge cylinder (0.5 cm×1 cm) (Caligen-Foam Ltd., UK) was implanted subcutaneously on each flank. Sponges contained a silastic insert (Silastic 20 medical grade, Dow Corning Corporation, USA) impregnated with vehicle, 2 mg of cortisol or cortisone, or 5 mg of RU38486. […] Such inserts release their impregnated compounds in vivo at a constant rate for 3 weeks. Human steroids (cortisol and cortisone, equivalent to corticosterone and 11-dehydrocorticosterone) were used to allow distinction from endogenous steroids. In separate experiments (not shown) angiogenesis in placebo-impregnated sponges was not altered by the presence or absence of a contralateral steroid-treated sponge.
(§2) Twenty days following implantation, mice were decapitated, sponges excised and inserts removed. Sponges were bisected; one half was fixed in 10% formalin and embedded in paraffin wax. Sections (8 μm) were stained with haematoxylin and eosin (H&E). The second half of the sponge was weighed, homogenised in 2 ml sterile phosphate buffered saline at 4° C. and centrifuged (2000 g; 30 minutes). Steroids were extracted from the supernatant using ethyl acetate and cortisol quantified using a specific radioimmunoassay (Amersham Pharmacia Biotech, UK). Sponge vessel density was determined by using the mean of triplicate Chalkley counts on 2 sections per sponge.

[4] = in vivo; conditions: mouse; for concentration at 20 days: Cortisol level
Description: as §1, §2

[5] = aortic rings from 11βHSD-1 −/− mice, glucocorticoid 600 nM, compared with wild type
[6] = wild type C57B16 aortic rings, 7-day incubation, physiological concentrations (up to 600 nM)
[7] = wild type rings, listed as Carbenoxolone

C[C@]12CC(=O)[C@H]3[C@@H](CCC4=CC(=O)CC[C@@]43C)[C@@H]1CC[C@@H]2C(=O)CO [11-dehydrocorticosterone]
effect of glucocorticoid on angiogenesis in aortic rings [1, 5]: did not inhibit angiogenesis
effect of glucocorticoid on angiogenesis in aortic rings [1, 6]: inhibited angiogenesis; also recorded: angiostatic effect

CC#C[C@]1(O)CC[C@H]2[C@@H]3CCC4=CC(=O)CCC4=C3[C@@H](c3ccc(N(C)C)cc3)C[C@@]21C [RU38486]
effect on the angiostatic effect of 11-dehydrocorticosterone [2]: prevented
effect on the angiostatic effect of corticosterone ([1]; wild type rings): prevented
direct effect on angiogenesis in aortic rings (drug alone) ([1]; wild type rings): did not affect; also recorded: no effect
new vessel formation in RU38486 impregnated sponges versus contralateral controls ([3]; wild type C57B16 mice, 5 mg in silastic insert): increased; also recorded: greater

CC1(C)[C@@H](OC(=O)CCC(=O)O)CC[C@]2(C)[C@H]3C(=O)C=C4[C@@H]5C[C@@](C)(C(=O)O)CC[C@]5(C)CC[C@@]4(C)[C@]3(C)CC[C@@H]12 [carbenoxolone]
effect on the angiostatic effect of 11-dehydrocorticosterone [2]: prevented
effect on angiogenesis in aortic rings at high concentration ([1]; wild type rings, 10^−4 M): abolished angiogenesis
effect on the angiostatic effect of corticosterone ([1]; wild type rings): did not potentiate; also recorded: did not influence
effect on the angiostatic effect of corticosterone [1, 7]: no effect
direct effect on angiogenesis in aortic rings (drug alone) ([1]; wild type rings): no direct effect
direct effect on angiogenesis in aortic rings (drug alone) [1, 7]: no effect

C[C@]12C[C@H](O)[C@H]3[C@@H](CCC4=CC(=O)CC[C@@]43C)[C@@H]1CC[C@@H]2C(=O)CO [corticosterone]
effect of glucocorticoid on angiogenesis in aortic rings [1, 5]: inhibited to a similar degree; also recorded: not different between strains
effect of glucocorticoid on angiogenesis in aortic rings [1, 6]: inhibited angiogenesis

C[C@]12CCC(=O)C=C1CC[C@@H]1[C@@H]2[C@@H](O)C[C@@]2(C)[C@H]1CC[C@]2(O)C(=O)CO [cortisol]
concentration at 20 days ([4]; 11bHSD-1 −/−, contralateral placebo treated sponge): 135 ± 46 ng/g
concentration at 20 days ([4]; 11bHSD-1 −/−, ipsilateral steroid treated sponge): 3780 ± 1700 ng/g
sponge cortisol concentrations, in words [4]: similar
concentration at 20 days ([4]; wild type, contralateral placebo treated sponge): 161 ± 18 ng/g
concentration at 20 days ([4]; wild type, ipsilateral steroid treated sponge): 4270 ± 186 ng/g
effect of steroid-impregnated sponge on angiogenesis in vivo ([3]; 11βHSD-1 −/− mice): inhibited angiogenesis to a similar degree
effect of steroid-impregnated sponge on angiogenesis in vivo ([3]; 11βHSD-1 −/− mice, listed as Cortisol): inhibited angiogenesis
effect of steroid-impregnated sponge on angiogenesis in vivo ([3]; wild type C57B16 mice): inhibited angiogenesis

C[C@]12CCC(=O)C=C1CC[C@@H]1[C@@H]2C(=O)C[C@@]2(C)[C@H]1CC[C@]2(O)C(=O)CO [cortisone]
sponge cortisol concentrations after impregnation with cortisone compared with cortisol, in words [4]: lower
sponge cortisol concentrations, in words [4]: did not elevate
effect of steroid-impregnated sponge on angiogenesis in vivo ([3]; 11βHSD-1 −/− mice): did not inhibit angiogenesis; also recorded: only in wild type mice
effect of steroid-impregnated sponge on angiogenesis in vivo ([3]; wild type C57B16 mice): inhibited angiogenesis

CC(=O)S[C@@H]1CC2=CC(=O)CC[C@]2(C)[C@H]2CC[C@@]3(C)[C@@H](CC[C@@]34CCC(=O)O4)[C@H]12 [spironolactone]
effect on the angiostatic effect of 11-dehydrocorticosterone [2]: no effect
effect on the angiostatic effect of corticosterone ([1]; wild type rings): no effect
direct effect on angiogenesis in aortic rings (drug alone) ([1]; wild type rings): no effect
